Data on 4 molecules can be found in patent publication US4262127A, “3-Alkoxy-2-alkylisothiazolium salts and their derivatives” (Givaudan Corporation, priority 1979, dated 1981).

This assay concerns Pseudomonas aeruginosa. The assay is described as follows: prevention of microbial growth in cutting oil emulsions (Kutwell 30). The following applies: 3.3% cutting oil emulsion (Kutwell 30), 28° C., read-out: concentration required to prevent microbial growth. Type of assay: cell-based. The protocol:
In running these tests, two-fold serial dilutions of 6% solutions of the compound in dimethylformamide was added to 3.3% cutting oil emulsions. The emulsions were prepared by diluting with water a commercially available cutting oil concentrate. The emulsions were inoculated with a culture of Pseudomonas aeruginosa and incubated at 28° C. on a rotary shaker. At weekly intervals, the emulsions were examined for bacteria by conventional streakplate methods. The emulsions were then reinoculated with Pseudomonas aeruginosa and reincubated.

Where [1] appears, read: 168 h, incubation period 1 week.
Where [2] appears, read: 336 h, incubation period 2 weeks, reinoculated weekly.
[3] abbreviates: 504 h, incubation period 3 weeks, reinoculated weekly.
Where [4] appears, read: 672 h, incubation period 4 weeks, reinoculated weekly.

Like-named read-outs stand apart in the source and are kept apart here.

As for `C=CCOc1ccs[n+]1C`, the MIC is < 32 µg/mL under setting [1], < 32 µg/mL under setting [2], 32 µg/mL under setting [3] and 32 µg/mL under setting [4].
As for `COc1ccs[n+]1C`, the MIC amounted to 32 µg/mL under setting [1], 64 µg/mL under setting [2], 64 µg/mL under setting [3] and 64 µg/mL under setting [4].
Consider `C[n+]1sccc1OCc1ccccc1`, for which the MIC runs as follows: under setting [1], < 32 µg/mL; under setting [2], < 32 µg/mL; under setting [3], < 32 µg/mL; under setting [4], < 32 µg/mL.
With `COc1c(Br)cs[n+]1C`, the MIC under setting [1] is < 32 µg/mL, the MIC under setting [2] turned out to be 32 µg/mL, the MIC under setting [3] amounted to 32 µg/mL and the MIC under setting [4] was determined as 32 µg/mL.
